Data: EP4786484A1, “CYCLIC PEPTIDE COMPOUND AND USE THEREOF” (Shenzhen Zhongge Biological Technology Co., Ltd., priority 2023, dated 2026)
Residues, ends and D or L forms follow the SMILES beside them.

What was measured:
elastin (ELN) = test: Elastin (ELN) elevation effect in fibroblasts (ELISA); format: cell-based, human; set-up: Elastin elevation effect in the fibroblasts: unit not given here; conditions: 1 µM, 24 h
Description: (§1) B. Collagen I (type I collagen) elevation effect in fibroblasts, hyaluronic acid (HA) elevation effect in fibroblasts, and elastin (ELN) elevation effect in fibroblasts
(§2) Test materials: Fibroblasts of human origin (Guangdong Boxi Biotechnology Co., Ltd., Lot No. Fb20081902), DMEM culture medium (Gibco, 23042301, expiration date 230522), PBS (Solarbio, P1010), TGF-β1 (Peprotech, 230504), Collagen I ELISA Kit (Cusabio, B21025824), Elastin ELISA kit (Abcam, GR3446070-2), HA ELISA kit (RD, P325066). CO2 incubator (Thermo, 1501), super-clean bench (AIRTECH, SW-CJ-1F), microplate reader (BioTek, Epoch).
(§3) Test methods: • 1) Inoculation: After cell resuscitation, the cells were inoculated into 6-well plates when the plating rate reached around 60%, and were incubated overnight in an incubator (37°C, 5% CO2). • 2) Formulation of solutions: The cyclic peptide compounds in the sample group, PC2 (Biotinoyl-GHK, [drawing 2] ) and PC3 [drawing 3] in the positive reference group were all at the concentration of 1 µM, and the test substance working solutions were formulated. Only the cell culture medium was added for the blank control group (BC). • 3) Administration: When the cell plating rate in the 6-well plates reached 40% to 60%, administration was performed at 2 mL per well. 3 duplicate wells were set for each group. Incubation was performed in an incubator (37°C, 5% CO2) for 24 h. • 4) ELISA assay: The ELISA assay was performed according to the instructions of the ELISA kit, with the detection indicators being Collagen I elevation effect in the fibroblasts, HA elevation effect in the fibroblasts, and elastin elevation effect in the fibroblasts.

[1] = test system: Collagen I (type I collagen); test: Collagen I elevation effect in fibroblasts (ELISA); format: cell-based, human; conditions: 1 µM, 24 h; result in words
Description: as §1, §2, §3

hyaluronic acid (HA) = test: Hyaluronic acid (HA) elevation effect in fibroblasts (ELISA); format: cell-based, human; set-up: HA elevation effect in the fibroblasts: unit not given here; conditions: 1 µM, 24 h
Description: as §1, §2, §3

[2] = test system: Fibroblasts of human origin; test: Fibroblast cytotoxicity test (MTT); format: cell-based; conditions: 24 h, OD 490 nm
Experimental: A. Fibroblast cytotoxicity test
Test materials: Fibroblasts of human origin (Guangdong Boxi Biotechnology Co., Ltd., Lot No. Fb20081902), DMEM culture medium (Gibco, 23042301, expiration date on 230522), PBS (Solarbio, P1010), MTT (Sigma, M5655), DMSO (Sigma, D4540-1L), CO2 incubator (Thermo, 150I), super-clean bench (AIRTECH, SW-CJ-1F), inverted microscope (Olympus, CKX53).
Test methods: • 1) Cell inoculation: After cell resuscitation, the cells were inoculated into 96-well plates when the plating rate reached around 60%, and were incubated overnight in an incubator (37°C, 5% CO2). • 2) Test grouping: The blank group, solvent control group, positive control group, and sample group were set for the test. In the sample group, 7 concentration gradients were set for each sample and 3 duplicate wells were set for each concentration gradient. • 3) Formulation of solutions: Sample working solutions at different concentrations were formulated based on the test concentrations of 0.0781 µM, 0.1563 µM, 0.3125 µM, 0.625 µM, 1.25 µM, 2.5 µM, and 5 µM. • 4) Administration: Administration was performed when the cell plating rate in the 96-well plates reached 50% to 60%. 200 µL of culture medium per well was added for the solvent control group; 200 µL of culture medium containing 10% DMSO per well was added for the positive control group; 200 µL of culture medium containing the sample at a corresponding concentration per well was added for the sample group; The blank group had no cell inoculation, for which only 200 µL of cell culture medium was added. After the administration was complete, the 96-well plates were incubated in an incubator (37°C, 5% CO2) for 24 h. • 5) Detection: After 24 h of cell incubation and culture, the supernatant was discarded, and MTT working solution (0.5 mg/mL) was added. Incubation was performed at 37°C for 4 h in the dark. After the incubation was completed, the supernatant was discarded and 150 µL DMSO was added to each well. The OD value was read at 490 nm. • 6) Calculation of relative viability of cells: Calculation was performed according to the formula below: Relative viability of cells = (Sample well OD−Blank well OD)/(Solvent control well OD−Blank well OD) × 100%. [formula]

## CC(C)C[C@@H]1NC(=O)[C@H](Cc2ccccc2)NC(=O)[C@H](CC(C)C)NC(=O)[C@H](CCCCN)NC(=O)[C@H](Cc2c[nH]cn2)NC(=O)CNC1=O [compound 292] (cyclo(FLGHKL))
Elastin (ELN); ELISA, Blank control (BC) 756.52
  Elastin elevation effect in the fibroblasts: 1278.99
Elastin (ELN); result in words
  elastin content compared to the BC: significant increase
[1]
  type I collagen (Collagen I) content compared to the BC: significant increase
Hyaluronic acid (HA); ELISA, Blank control (BC) 1402.44
  HA elevation effect in the fibroblasts: 2635.98
Hyaluronic acid (HA); result in words
  hyaluronic acid (HA) content compared to the BC: significant increase
[2]; 0.0781 µM
  Relative viability of cells: 107.68%
[2]; 0.1563 µM
  Relative viability of cells: 107.63%
[2]; 0.3125 µM
  Relative viability of cells: 105.05%
[2]; 0.625 µM
  Relative viability of cells: 102.37%
[2]; 1.25 µM
  Relative viability of cells: 102.07%
[2]; 2.5 µM
  Relative viability of cells: 102.88%
[2]; 5 µM
  Relative viability of cells: 102.88%
